Test results as given in patent US9775859B2, “Methods and compositions for preventing and treating a disease related to glycan dysregulation” (Sinai Health System, priority 2005, dated 2017).
Entries after “also recorded” stand apart in the source; their conditions may differ.

Key:
Jurkat T-cells [1] = assay: L-PHA-FITC staining of Jurkat T cells cultured 3 days with monosaccharides, metabolites, Vitamin D3 or glycosidase inhibitors, FACS; assay type: cell-based, human; settings: for Mgat5 N-glycans / β1,6GlcNAc-branched N-glycans expression (L-PHA staining): Jurkat T-cells, 3 days culture with supplement
Experimental: (§1) Mice used for L-PHA staining and quantitative RT-PCR were sex and age matched. […] 129/Sv mice were from an original Mgat5 gene targeted population (28). All other mice (SJL, NOD, Balb/c and B10.S) were obtained from Jackson Laboratories. […] Mouse and Jurkat cells were stained with L-PHA and LEA by first blocking with PBA (2% bovine serum albumin/0.01% azide/PBS) for 10 min at 4° C. and then incubated with 4 μg/ml of L-PHA-FITC (Vector Laboratories Inc.) or 20 μg/ml of LEA-FITC (Sigma) in PBA for 40 min at 4° C. and analyzed by a BD FACSCalihur (BD Pharmingen, San Diego, Calif.). The level of lectin binding was normalized by untreated control and calculated as a percentage (Sample intensity/control intensity-1) %.
(§2) Mice used for L-PHA staining and quantitative RT-PCR were sex and age matched. […] 129/Sv mice were from the original Mgat5 gene targeted population (28). All other mice (SJL, NOD, Balb/c and B10.S) were obtained from Jackson Laboratories. Mouse cells were stained with anti-CD4 (RM4-5), anti-CD8 (53-6.7), anti-CD45R (RA3-6B2) from eBioscience, and L-PHA (4 μg/ml) and LEA (20 μg/ml) from Sigma. […] Jurkat T-cells were cultured in either glutamine free RPMI 1640, 10% FBS, 10 mM/20 mM glucose or glucose/glutamine free DMEM base media supplemented with 10% FBS, 1.5 mM glucose. The indicated monosaccharides and/or metabolites were added daily except glucose which was added only at time zero.

Jurkat T-cells [2] = assay: LEA-FITC staining (poly-N-acetyllactosamine) of Jurkat T cells, FACS; assay type: cell-based, human; settings: 3 days culture with supplement
Experimental: as §1, §2

Jurkat T-cells [3] = assay: MS/MS mass spectroscopy of sugar-nucleotide expression in Jurkat cell lysates; assay type: cell-based, human
Experimental: Jurkat cell pellets (20×10^6) were resuspended in a cold 300 μl methanol:water (1:1) solution containing maltose as internal standard, vortexed for 10 seconds, and then pipetted into tubes containing 600 μl of chloroform:methanol (C:M) (3:2). Samples were vortexed for 1 minute, and then centrifuged at 14,000 rpm for 5 minutes at 4° C. Supernatants were collected, and an equal volume of C:M (1:1) was added, followed by a second extraction. The pooled aqueous fraction containing the hydrophilic metabolites was dried with a speedvac and stored at −80° C. Prior to injection, the samples were dissolved in 100 μl methanol:water (1:1). […] The metabolites were identified by their transitions in MS/MS, and quantified using the Analyte Software (SCIEX), which measured the area under the curve for the fragment ions corresponding to each parent ion. Quantities for the given substrates are graphed as pmole/min/10^6 cells.
JurkaT-cell pellets (20×10^6) were resuspended in cold 300 μl methanol:water (1:1) solution containing maltose as an internal standard, vortexed for 10 seconds, and then pipetted into tubes containing 600 μl of chloroform:methanol (C:M) (3:2). […] The metabolites were identified by their transitions in MS/MS, and quantified using the Analyte Software (SCIEX), which measured the area under the curve for the fragment ions corresponding to each parent ion. […]

[4] = test system: splenocytes harvested from MBP immunized wild type PL/J mice; assay: L-PHA and LEA staining of splenocytes from MBP immunized PL/J mice re-stimulated with MBP; assay type: cell-based, mouse; settings: MBP re-stimulation 4 days, GlcNAc 40 mM
Experimental: (§3) Adoptive transfer EAE was induced by s.c. immunization of wild type PL/J mice housed in the UCI vivarium with 100 μg of bovine MBP (Sigma) emulsified in Complete Freund's Adjuvant containing 4 mg/ml heat-inactivated Mycobacterium tuberculosis (H37 RA; Difco, Detroit, Mich.) distributed over three spots on the hind flank. Splenocytes were harvested after 11 days and stimulated in vitro with 50 μg/ml MBP in the presence or absence of 40 mM N-Acetyl-D-glucosamine (Sigma) added daily. After 96 hours incubation, CD3^+ T cells were purified by negative selection (R&D Systems) and 3.5×10^6T-cells were injected i.p. into naïve PL/J Mgat5^+/− recipient mice. Trypan blue exclusion determined <3% dead cells under both culture conditions. The mice were scored daily for clinical signs over the next 30 days with the observer blinded to treatment conditions.
as §1, with “(28).” for “(28). All other mice (SJL, NOD, Balb/c and B10.S) were obtained from Jackson Laboratories.”, “The level of lectin binding was normalized by untreated control and calculated as a percentage (Sample intensity/control intensity-1) %.” left out

[5] = test system: splenocytes harvested from MBP immunized wild type PL/J mice; assay: Cytokine ELISA of supernatant from MBP re-stimulated splenocyte cultures; assay type: cell-based, mouse; settings: MBP re-stimulation day 4, GlcNAc 40 mM
Experimental: Supernatant from spleenocyte cultures used for adoptive transfer EAE at day 4 of stimulation with MBP in the presence or absence of GlcNAc (40 mM) were tested for INFγ levels. Microtiter plates were coated with 50 μl of anti-IFN-γ (1 μg/ml, clone AN-18; eBiosciences) overnight at 4° C. Supernatants were applied at 50 μl/well in duplicate and incubated for 2 hours at room temperature. Captured cytokines were detected using biotinylated anti-IFN-γ (1 μg/ml, clone R4-6A2; eBiosciences) and detected using Avidin Horse Radish Peroxidase (eBiosciences) at 1:500× dilution and o-Phenylenediamine dihydrochloride OPD tablets (Sigma) according to the manufacturer's protocols. […] Colorimetric change was measured at 450 nm on a microplate autoreader (Labsystems).
Supernatant from splenocyte cultures used for adoptive transfer EAE at day 4 of stimulation with MBP in the presence or absence of GlcNAc (40 mM) were tested for IFN-γ and IL-6 levels. […] Captured cytokines were detected using biotinylated anti-IFN-γ (1 μg/ml, clone R4-6A2; eBiosciences) or anti-IL-6 (1 μg/ml, clone MP5-32C11; eBiosciences) and detected using Avidin Horse Radish Peroxidase (eBiosciences) at 1:500× dilution and o-Phenylenediamine dihydrochloride OPD tablets (Sigma) according to the manufacturer's protocols. […] Colorimetric change was measured at 450 nm on a microplate autoreader (Labsystems).

[6] = test system: naïve PL/J Mgat5+/− recipient mice; assay: Adoptive transfer EAE; assay type: in vivo, mouse; settings: T-cells re-stimulated in vitro with GlcNAc 40 mM, scored 30 days
Experimental: as §3
(§4) Adoptive transfer EAE was induced by s.c. immunization of wild type PL/J mice housed in the UCI vivarium with 100 μg of bovine MBP (Sigma) emulsified in Complete Freund's Adjuvant containing 4 mg/ml heat-inactivated Mycobacterium tuberculosis (H37 RA; Difco, Detroit, Mich.) distributed over three spots on the hind flank. […] Trypan blue exclusion determined […] dead cells under both culture conditions. Mice were scored daily for clinical signs of EAE over the next 30 days with the observer blinded to treatment conditions.

CD3+ T cells = assay: Trypan blue exclusion of MBP-stimulated cultures used for adoptive transfer; assay type: cell-based; settings: 96 hours incubation, 40 mM added daily
Experimental: as §3, §4

human PBMCs = assay: L-PHA staining of human PBMCs / MS patient T cells; assay type: cell-based
Experimental: Mononuclear cells were isolated from the blood of subjects using Histopaque-1077™ gradients (Sigma, Saint Louis, Mo.) and cultured in RPMI 1640 medium supplemented with 4 mM glutamine, 1 mM sodium pyruvate, 1% non-essential amino acids, 1% RPMI vitamins, 100 units/ml penicillin, 100 μg/ml streptomycin, and 50 μM […]. T lymphocytes were left unstimulated or were activated for 48 hours with 20 ng/ml anti-CD3 antibody (Biomeda, Foster City, Calif.) or a combination of 20 myelin peptides at […] myelin basic protein (MBP). The myelin peptides were immunodominant peptides from human proteolipid protein (PLP 30-49, PLP 40-60, PLP 95-118, PLP 118-150, PLP-180-189, PLP 185-206), human myelin oligodendrocyte glycoprotein (MOG 38-60, MOG 63-87, MOG 76-100, MOG 89-113, MOG 112-132 and MOG 162-188) and cryptic peptides from MBP (MBP 41-69, MBP 61-79, MBP 121-139 and MBP 131-149) and PLP (PLP 73-104, PLP 145-186, PLP 218-248 and PLP 241-272) that are not normally derived from antigen processing but may be made by extracellular proteolytic activity (57). Whole MBP was isolated from frozen guinea pig spinal cords (Harlan Bioproducts, Indianapolis, Ind.). […] The stained cells were analyzed on a FACScan (BD Biosciences, San Jose, Calif.) using the CellQuest software. […] Background fluorescence was subtracted for each population. […]

hepatoma cells = settings: cited from earlier work
T cell = settings: cited from earlier work
EAE = settings: mouse, in vivo; cited from earlier work

Compound | Mgat5 N-glycans / β1,6GlcNAc-branched N-glycans expression (L-PHA staining) (Jurkat T-cells [1]) | poly-N-acetyllactosamine expression (LEA staining) (Jurkat T-cells [2]) | intracellular UDP-GlcNAc levels (Jurkat T-cells [3]) | Mgat5 N-glycan / β1,6GlcNAc-branched N-glycans expression in re-stimulated splenocytes [4] | poly-N-acetyllactosamine expression in re-stimulated splenocytes [4] | IL-6 secretion [5] | INFγ production [5] | incidence of EAE following adoptive transfer of T-cells [6] | severity of EAE following adoptive transfer of T-cells [6] | dead cells (Trypan blue exclusion) (CD3+ T cells) | dead cells (Trypan blue exclusion) (CD3+ T cells; listed as N-Acetyl-D-glucosamine) | reversal of SW induced downregulation of Mgat5 glycans (Jurkat T-cells [1]; Jurkat T cells with swainsonine) | synergy with anti-CD3 in up-regulating Mgat5 glycan levels (Jurkat T-cells [1]; Jurkat T cells, anti-CD3) | reversal of attenuated Mgat5 N-glycan expression in MS patients (human PBMCs; MS patient T cells) | Mgat5 modified glycan expression (human PBMCs; human PBMCs) | Mgat5 mRNA expression (hepatoma cells) | INFγ production (T cell) | T cell activation (T cell) | TH1 differentiation (T cell) | EAE (EAE)
CC(=O)N[C@H]1C(O)O[C@H](CO)[C@@H](O)[C@@H]1O (stereo partly drawn) [GlcNAc, N-acetyl-D-glucosamine] | dose dependently increased | dose dependently increased | dramatically raised | doubled; also recorded: increased | doubled; also recorded: increased | promoted | inhibited | dramatically reduced | dramatically reduced | < 5% | < 3% |  |  |  |  |  |  |  |  | 
C=C1/C(=C\C=C2/CCC[C@]3(C)[C@@H]([C@H](C)CCCC(C)(C)O)CC[C@@H]23)C[C@@H](O)C[C@@H]1O [Vitamin D3, 1α,25-Dihydroxyvitamin D3] | enhanced; also recorded: increases |  |  |  |  |  |  |  |  |  |  | rescued; also recorded: reversed | synergized | reversed | enhanced | up-regulates | inhibits | inhibits | inhibits | inhibits
